# Measured values from PMC7363588, “Mapping of the FGF14:Nav1.6 complex interface reveals FLPK as a functionally active peptide modulating excitability” (Physiological Reports, 2020).
# “Also recorded” adds a separate entry of the source. Peptide text beside a SMILES is read from it.
# Columns and labels:
# [1] = test system: FGF14^Y158A/V160A:Nav1.6 complex; test: LCA, CLuc-FGF14^Y158A/V160A; type: cell-based, human; conditions: 50 µM peptide, 12 hr, HEK293, vs DMSO
# FGF14:Nav1.6 complex = molecular target: T1, FGF14:Nav1.6 complex (Homo sapiens, UniProt Q92915); test: Split-luciferase complementation assay (LCA), CLuc-FGF14 wild type; type: cell-based; conditions: for effect on FGF14:Nav1.6 complex formation: 50 µM, 12 hr, HEK293, % maximal luminescence vs DMSO, n = 6–10 independent experiments, FLPK, EYYV p < .01, PLEV p < .001
# T1 construct: expressed in transfected cells; host or cells: HEK293, transient transfection
# T1 sequence (Q92915 1-252 isoform Q92915-2): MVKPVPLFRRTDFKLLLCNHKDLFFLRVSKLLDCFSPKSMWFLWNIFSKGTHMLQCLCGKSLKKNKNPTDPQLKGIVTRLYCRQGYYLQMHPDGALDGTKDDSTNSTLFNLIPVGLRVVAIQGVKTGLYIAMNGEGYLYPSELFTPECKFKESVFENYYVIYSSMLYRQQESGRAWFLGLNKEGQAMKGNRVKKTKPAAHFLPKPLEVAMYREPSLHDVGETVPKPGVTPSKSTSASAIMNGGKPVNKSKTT
# Excerpt: (§1) Plasmids used in this study derived from the following clones: human FGF14‐1b isoform (accession number: NM_175929.2) and human Nav1.6 (accession number: NM_014191.3). The CLuc‐FGF14, CD4‐Nav1.6‐NLuc, constructs and the pcDNA3.1 vector (Invitrogen, Carlsbad, CA) were engineered and characterized as previously described (Goetz et al., 2009; Shavkunov et al., 2012,2013,2015; Ali et al., 2016, 2018; Wadsworth et al., 2019). The plasmid pGL3 expressing full length Firefly (Photinus pyralis) luciferase was a gift from Dr. P. Sarkar (Department of Neurology, UTMB). For protein purification studies, cDNAs encoding FGF14‐1b (accession number NP_787125; aa 64–252) or the C‐terminal tail of Nav1.6 (accession number #NP_001171455; aa 1756–1939) were subcloned into suitable pET bacterial expression vectors (pET28a‐FGF14; pET30a‐Nav1.6) with a 6X His‐tag at the N‐terminal site; these plasmids were a gift of Dr. Moosa Mohammadi (NYU, Langone Medical Center). The mutation coding for FGF14^V160A was generated by site‐directed mutagenesis and PCR using FGF14‐1b as a template described previously (Ali et al., 2016). For electrophysiological studies FGF14‐GFP (human) and FGF14‐ΔNT‐GFP (human) were cloned into the GFP plasmid (pQBI‐fC2; Quantum Biotechnology Inc., Montreal, Canada) as previously described.
# HEK293 cells were maintained in DMEM and F‐12 (Invitrogen, Carlsbad, CA), supplemented with 0.05% glucose, 0.5 mM pyruvate, 10% fetal bovine serum, 100 units/ml penicillin, and 100 µg/ml streptomycin (Invitrogen), and incubated at 37 °C with 5% CO2. HEK293 cells stably expressing the human Nav1.6 channel (hereafter referred to as HEK‐Nav1.6 cells) were maintained similarly except for the addition of 500 μg/ml G418 (Invitrogen) to maintain stable Nav1.6 expression. Cells were transfected at 80%–90% confluence with equal amount (1 μg each) of plasmid pairs using Lipofectamine 2000 (Invitrogen) according to manufacturer's instructions. HEK‐Nav1.6 cells were washed and replated at very low density prior to electrophysiological recordings (Ali et al., 2016, 2018; Scala et al., 2018; Wadsworth et al., 2019).
# (§2) Twenty‐four hours after transfection, HEK293 cells were replated from the 24‐well plate using a 0.04% Trypsin:EDTA mixture dissolved in PBS. Suspended cells were centrifuged and seeded in white, clear‐bottom 96‐well tissue culture plates (Greiner Bio‐One) in 200 µl of medium. […] The bioluminescence reaction was initiated by dispensing 100 µl of D‐luciferin substrate (1.5 mg/ml dissolved in PBS) using a Synergy^TM H4 Multi‐Mode Micro plate Reader (Biotech, Winooski, VT). Luminescence readings were initiated after 3 s of mild plate shaking and performed at 2 min intervals for 20 min with integration times of 0.5 s. […]
# (§3) To test the hypothesis that FLPK, PLEV and/or EYYV in cells could act as FGF14 inhibitors of the FGF14:Nav1.6 complex assembly, the complex was reconstituted using LCA (Ali et al., 2014, 2016; Hsu et al., 2015, 2017; Shavkunov et al., 2012,2013,2015; Wadsworth et al., 2019). HEK293 cells transfected with constructs expressing CLuc‐FGF14 and CD4‐Nav1.6 C‐tail‐NLuc in which luminescence is detected upon addition of the D‐luciferin substrate as a read‐out of protein binding (Figure 3). In‐cell binding of the reconstituted FGF14:Nav1.6 complex in the presence of vehicle (0.1% DMSO) is represented as summary bar graphs of percent maximal luminescence at 10–15 min of reaction time (Figure 3). […]
# [2] = test system: FGF14^V160A:Nav1.6 complex; test: LCA, CLuc-FGF14^V160A; type: cell-based, human; conditions: 50 µM peptide, 12 hr, HEK293, vs DMSO
# Excerpt: as §1, with “For electrophysiological studies FGF14‐GFP (human) and FGF14‐ΔNT‐GFP (human) were cloned into the GFP plasmid (pQBI‐fC2; Quantum Biotechnology Inc., Montreal, Canada) as previously described.” left out
# as §2, with “PBS.” for “PBS. Suspended cells were centrifuged and seeded in white, clear‐bottom 96‐well tissue culture plates (Greiner Bio‐One) in 200 µl of medium.”
# as §3, with “3).” for “3). In‐cell binding of the reconstituted FGF14:Nav1.6 complex in the presence of vehicle (0.1% DMSO) is represented as summary bar graphs of percent maximal luminescence at 10–15 min of reaction time (Figure 3).”
Compound,effect on FGF14^Y158A/V160A:Nav1.6 complex formation [1],effect on FGF14:Nav1.6 complex formation (FGF14:Nav1.6 complex),effect on FGF14^V160A:Nav1.6 complex formation [2],"IC50 (FGF14:Nav1.6 complex; HEK293 cells, FLPK 1, 10, 25, 50, 75, 100, 150, 250 µM, luminescence normalized to DMSO, apparent IC50, read-out: IC50, inhibition of FGF14:Nav1.6 complex formation)","efficacy in reducing FGF14:Nav1.6 complex formation (FGF14:Nav1.6 complex; dose-response (Figure 3f), compared to control conditions)"
EYYV [tetrapeptide previously designed from FGF14:FGF14 dimer interface; docked with N-terminal acetylation and C-terminal amidation],prevented the effect of FLPK and EYYV; also recorded: abolished,significant reduction of the FGF14:Nav1.6 complex formation,prevented the effect of FLPK and EYYV; also recorded: abolished,–,–
CC(=O)N[C@@H](Cc1ccccc1)C(=O)N[C@@H](CC(C)C)C(=O)N1CCC[C@H]1C(=O)N[C@@H](CCCCN)C(N)=O [FLPK] (Ac-FLPK-NH2),prevented the effect of FLPK and EYYV; also recorded: abolished,significant reduction of the FGF14:Nav1.6 complex formation; also recorded: weak inhibition,prevented the effect of FLPK and EYYV; also recorded: abolished,58 µM,above 50%
PLEV [tetrapeptide previously designed from FGF14:FGF14 dimer interface; docked with N-terminal acetylation and C-terminal amidation],"slight, but statistically significant increase; also recorded: not PLEV",significant reduction of the FGF14:Nav1.6 complex formation,not PLEV,–,–
